Data taken from US20020035061A1, “COMPOSITIONS AND METHODS FOR TREATING INFECTIONS USING CATIONIC PEPTIDES ALONE OR IN COMBINATION WITH ANTIBIOTICS” (priority 1996, published 2002).
Like-named read-outs stand apart in the source and are kept apart here.

Key:
bacterial isolates = test: microbe, parasite or virus in culture; assay type: cell-based
S. aureus = assay type: cell-based; details: for MIC, Peptide: unmodified parent peptide

Sequence: ILRWPWWPWRRK [MBI 11B7CN]
- Peptide MIC Alone (bacterial isolates; 2. Ceftriaxone, A. baumannii ABI002): 32 µg/mL
- Peptide MIC Alone (bacterial isolates; 2. Ceftriaxone, A. baumannii ABI006): 32 µg/mL
- Peptide MIC Alone (bacterial isolates; 2. Ceftriaxone, B. cepacia BC003): >128 µg/mL
- Peptide MIC Alone (bacterial isolates; 2. Ceftriaxone, P. aeruginosa PA008): 128 µg/mL
- Peptide MIC Alone (bacterial isolates; 2. Ceftriaxone, P. aeruginosa PA024): >128 µg/mL
- Peptide MIC Alone (bacterial isolates; 2. Ceftriaxone, S. maltophilia SMA020): 16 µg/mL
- Peptide MIC Alone (bacterial isolates; 2. Ceftriaxone, S. maltophilia SMA021): 32 µg/mL
- Peptide MIC Alone (bacterial isolates; 2. Ceftriaxone, S. maltophilia SMA023): 128 µg/mL
- Ceftriaxone MIC + Peptide (bacterial isolates; A. baumannii ABI002): 8 µg/mL
- Peptide MIC + Ceftriaxone (bacterial isolates; A. baumannii ABI002): 8 µg/mL
- Ceftriaxone MIC + Peptide (bacterial isolates; A. baumannii ABI006): 16 µg/mL
- Ceftriaxone MIC + Peptide (bacterial isolates; B. cepacia BC003): 16 µg/mL
- Peptide MIC + Piperacillin (bacterial isolates; E. cloacae 6): 16 µg/mL
- Piperacillin MIC + Peptide (bacterial isolates; E. cloacae 6): 16 µg/mL
- Peptide MIC Alone (bacterial isolates; E. cloacae 6, Piperacillin section): 32 µg/mL
- Peptide MIC + Piperacillin (bacterial isolates; E. cloacae 9): 16 µg/mL
- Piperacillin MIC + Peptide (bacterial isolates; E. cloacae 9): 1 µg/mL
- Peptide MIC Alone (bacterial isolates; E. cloacae 9, Piperacillin section): 32 µg/mL
- Peptide MIC + Piperacillin (bacterial isolates; E. cloacae 10): 16 µg/mL
- Piperacillin MIC + Peptide (bacterial isolates; E. cloacae 10): 0.5 µg/mL
- Peptide MIC Alone (bacterial isolates; E. cloacae 10, Piperacillin section): 32 µg/mL
- Peptide MIC + Piperacillin (bacterial isolates; H. influenzae 1): 0.125 µg/mL
- Piperacillin MIC + Peptide (bacterial isolates; H. influenzae 1): 32 µg/mL
- Peptide MIC Alone (bacterial isolates; H. influenzae 1, Piperacillin section): >128 µg/mL
- Peptide MIC + Piperacillin (bacterial isolates; H. influenzae SB1): 0.125 µg/mL
- Piperacillin MIC + Peptide (bacterial isolates; H. influenzae SB1): 0.25 µg/mL
- Peptide MIC Alone (bacterial isolates; H. influenzae SB1, Piperacillin section): >128 µg/mL
- Peptide MIC + Piperacillin (bacterial isolates; P. aeruginosa 23): 64 µg/mL
- Piperacillin MIC + Peptide (bacterial isolates; P. aeruginosa 23): 2 µg/mL
- Peptide MIC Alone (bacterial isolates; P. aeruginosa 23, Piperacillin section): 128 µg/mL
- Ceftriaxone MIC + Peptide (bacterial isolates; P. aeruginosa PA008): 16 µg/mL
- Peptide MIC + Ceftriaxone (bacterial isolates; P. aeruginosa PA008): 16 µg/mL
- Ceftriaxone MIC + Peptide (bacterial isolates; P. aeruginosa PA024): 32 µg/mL
- Peptide MIC + Ceftriaxone (bacterial isolates; P. aeruginosa PA024): 0.125 µg/mL
- Peptide MIC + Piperacillin (bacterial isolates; S. aureus 19 MRSA): 1 µg/mL
- Piperacillin MIC + Peptide (bacterial isolates; S. aureus 19 MRSA): 32 µg/mL
- Peptide MIC Alone (bacterial isolates; S. aureus 19 MRSA, Piperacillin section): 4 µg/mL
- Peptide MIC + Piperacillin (bacterial isolates; S. maltophilia 5): 64 µg/mL
- Piperacillin MIC + Peptide (bacterial isolates; S. maltophilia 5): 64 µg/mL
- Peptide MIC Alone (bacterial isolates; S. maltophilia 5, Piperacillin section): >128 µg/mL
- Peptide MIC + Piperacillin (bacterial isolates; S. maltophilia 9): 64 µg/mL
- Piperacillin MIC + Peptide (bacterial isolates; S. maltophilia 9): 64 µg/mL
- Peptide MIC Alone (bacterial isolates; S. maltophilia 9, Piperacillin section): >128 µg/mL
- Peptide MIC + Piperacillin (bacterial isolates; S. maltophilia 11): 32 µg/mL
- Piperacillin MIC + Peptide (bacterial isolates; S. maltophilia 11): 64 µg/mL
- Peptide MIC Alone (bacterial isolates; S. maltophilia 11, Piperacillin section): >128 µg/mL
- Ceftriaxone MIC + Peptide (bacterial isolates; S. maltophilia SMA020): 64 µg/mL
- Peptide MIC + Ceftriaxone (bacterial isolates; S. maltophilia SMA020): 8 µg/mL
- Ceftriaxone MIC + Peptide (bacterial isolates; S. maltophilia SMA021): 64 µg/mL
- Peptide MIC + Ceftriaxone (bacterial isolates; S. maltophilia SMA021): 8 µg/mL
- Ceftriaxone MIC + Peptide (bacterial isolates; S. maltophilia SMA023): 32 µg/mL
- Peptide MIC + Ceftriaxone (bacterial isolates; S. maltophilia SMA023): 16 µg/mL
- Peptide MIC + Piperacillin (bacterial isolates; S. marcescens 1): 4 µg/mL
- Piperacillin MIC + Peptide (bacterial isolates; S. marcescens 1): 8 µg/mL
- Peptide MIC Alone (bacterial isolates; S. marcescens 1, Piperacillin section): >128 µg/mL
- FIC (bacterial isolates; peptide + Ceftriaxone, A. baumannii ABI002): 0.50
- FIC (bacterial isolates; peptide + Ceftriaxone, A. baumannii ABI006): 0.25
- FIC (bacterial isolates; peptide + Ceftriaxone, B. cepacia BC003): 0.52
- FIC (bacterial isolates; peptide + Ceftriaxone, P. aeruginosa PA008): 0.25
- FIC (bacterial isolates; peptide + Ceftriaxone, P. aeruginosa PA024): 0.50
- FIC (bacterial isolates; peptide + Ceftriaxone, S. maltophilia SMA020): 0.75
- FIC (bacterial isolates; peptide + Ceftriaxone, S. maltophilia SMA021): 0.50
- FIC (bacterial isolates; peptide + Ceftriaxone, S. maltophilia SMA023): 0.38
- FIC (bacterial isolates; peptide + Piperacillin, E. cloacae 6): 0.56
- FIC (bacterial isolates; peptide + Piperacillin, E. cloacae 9): 0.50
- FIC (bacterial isolates; peptide + Piperacillin, E. cloacae 10): 0.50
- FIC (bacterial isolates; peptide + Piperacillin, H. influenzae 1): 0.50
- FIC (bacterial isolates; peptide + Piperacillin, H. influenzae SB1): 0.50
- FIC (bacterial isolates; peptide + Piperacillin, P. aeruginosa 23): 0.56
- FIC (bacterial isolates; peptide + Piperacillin, S. aureus 19 MRSA): 0.50
- FIC (bacterial isolates; peptide + Piperacillin, S. maltophilia 5): 0.50
- FIC (bacterial isolates; peptide + Piperacillin, S. maltophilia 9): 0.50
- FIC (bacterial isolates; peptide + Piperacillin, S. maltophilia 11): 0.38
- FIC (bacterial isolates; peptide + Piperacillin, S. marcescens 1): 0.27
- MIC, Peptide (S. aureus; S. aureus SA010): 1 µg/mL
- MIC, Peptide (S. aureus; S. aureus SA011): 4 µg/mL
- MIC, Peptide (S. aureus; S. aureus SA014): 2 µg/mL
- MIC, Peptide (S. aureus; S. aureus SA018): 16 µg/mL
- MIC, Peptide (S. aureus; S. aureus SA025): 1 µg/mL
- MIC, Peptide (S. aureus; S. aureus SA093): 1 µg/mL
- MIC (S. aureus; S. aureus strain SA009): 2 µg/mL
